Measurements: ChEMBL document CHEMBL1135777, “Three-dimensional quantitative structure-activity relationships of mazindol analogues at the dopamine transporter” (J Med Chem, 2002)

Each compound was assayed against Sodium-dependent dopamine transporter (Rattus norvegicus, UniProt P23977) (assay: Ability to displace [3H]WIN-35428 from dopamine transporter in rat caudate putamen tissue).
Type: tissue-based

Chain of Sodium-dependent dopamine transporter (P23977 whole entry): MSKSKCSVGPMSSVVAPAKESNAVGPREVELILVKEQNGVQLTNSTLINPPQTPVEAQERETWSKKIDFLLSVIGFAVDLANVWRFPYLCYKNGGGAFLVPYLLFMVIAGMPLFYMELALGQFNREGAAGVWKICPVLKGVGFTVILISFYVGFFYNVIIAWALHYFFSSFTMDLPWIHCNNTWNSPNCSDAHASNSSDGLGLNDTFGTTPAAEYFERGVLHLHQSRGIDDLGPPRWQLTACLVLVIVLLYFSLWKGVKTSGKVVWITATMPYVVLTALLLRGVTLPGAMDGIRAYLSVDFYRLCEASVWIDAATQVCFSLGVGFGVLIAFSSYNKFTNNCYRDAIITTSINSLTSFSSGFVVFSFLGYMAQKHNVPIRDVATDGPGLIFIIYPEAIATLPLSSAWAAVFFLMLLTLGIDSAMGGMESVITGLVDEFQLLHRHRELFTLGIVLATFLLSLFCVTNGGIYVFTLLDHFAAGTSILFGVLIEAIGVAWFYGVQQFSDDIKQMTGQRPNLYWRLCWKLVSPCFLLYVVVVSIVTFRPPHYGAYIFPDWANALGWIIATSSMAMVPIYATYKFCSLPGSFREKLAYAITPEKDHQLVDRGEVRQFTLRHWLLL

Point of comparison: `OC1(c2ccc(CN3CCCCC3)cc2)c2ccccc2C2=NCCCN21` (configuration not stated), IC50 1200 nM. Against it:
- CN(C)Cc1ccc(C2(O)c3ccccc3C3=NCCN32)cc1 (configuration not stated) — 2.3-fold higher, 2800 nM
- COc1ccc(C2(O)c3ccccc3C3=NCCCN32)cc1 (configuration not stated) — 480-fold lower, 2.5 nM
- CC1(C2(O)c3ccccc3C3=NCCN32)CCCCC1 (configuration not stated) — 2.9-fold higher, 3500 nM
- Clc1ccc(Oc2ccccc2C2=NCCN2)cc1 — 6.3-fold lower, 190 nM
- CC1(C)COC(c2cccc(C(O)c3ccc(Cl)cc3)c2)=N1 (configuration not stated) — 13-fold higher, 16000 nM
- COc1ccc(C2(O)c3ccccc3C3=NCCCN32)cc1OC (configuration not stated) — 14-fold lower, 87 nM
- OC1(c2ccccn2)c2ccccc2C2=NCCN21 (configuration not stated) — 3.1-fold higher, 3700 nM
- OC(c1ccc(Cl)cc1)c1ccc(C2=NCCN2)cc1 (configuration not stated) — within 1.5-fold, 1600 nM
- Oc1ccc(C2(O)c3ccccc3C3=NCCCN32)cc1 (configuration not stated) — 350-fold lower, 3.4 nM
- OC1(C23C[C@H]4C[C@@H](C2)C[C@@H](C3)C4)c2ccccc2C2=NCCN21 (some centres not stated) — 4.1-fold higher, 4900 nM
- C=CCOc1ccc(C2(O)c3ccccc3C3=NCCCN32)cc1 (configuration not stated) — 17-fold lower, 72 nM
- O=C(c1ccc(Cl)cc1)c1ccccc1-c1ncc[nH]1 — 2.3-fold higher, 2800 nM
- Cc1ccc(C2(O)c3ccccc3C3=NCCN32)cc1 (configuration not stated) — 13-fold lower, 93 nM
- OC1(c2ccc(Cl)cc2)c2ccccc2C2=N[C@@H]3CCCC[C@H]3N21 (some centres not stated) — 35-fold lower, 34 nM
- OC1CN=C2c3ccccc3C(O)(c3ccc(Cl)cc3)N2C1 (configuration not stated) — 120-fold lower, 10 nM
- OC1(c2ccc(Cl)cc2)c2cccc3cccc(c23)C2=NCCCN21 (configuration not stated) — 29-fold lower, 42 nM
- O=S(=O)(c1ccc(Cl)cc1)c1ccccc1C1=NCCN1 — 5.4-fold higher, 6500 nM
- OC1(c2ccc(Cl)cc2)c2ccccc2C2=NCCCN21 (configuration not stated) — 1200-fold lower, 1 nM
- Clc1ccc(Cc2ccccc2C2=NCCN2)cc1 — 3.3-fold higher, 4000 nM
- OC1(c2ccc(COc3ccccc3)cc2)c2ccccc2C2=NCCN21 (configuration not stated) — 1.7-fold lower, 720 nM
- OC1(c2cccnc2)c2ccccc2C2=NCCN21 (configuration not stated) — 1.9-fold lower, 640 nM
- OC1(c2ccc3ccccc3c2)c2ccccc2C2=NCCN21 (configuration not stated) — 52-fold lower, 23 nM
- OC(c1ccc(Cl)cc1)c1ccccc1C1=NCCN1 (stereo in doubt; 54) — 2.2-fold higher, 2700 nM
- CC(C)(C)C1(O)c2ccccc2C2=NCCN21 (configuration not stated) — 7.9-fold higher, 9500 nM
- Clc1ccc(Sc2ccccc2C2=NCCN2)cc1 — 3.8-fold lower, 320 nM
- OC1(c2ccc(C(F)(F)F)cc2)c2ccccc2C2=NCCN21 (configuration not stated) — 4.1-fold lower, 290 nM
- COC(=O)c1ccc(C2(O)c3ccccc3C3=NCCN32)cc1 (configuration not stated) — 2.8-fold higher, 3300 nM
- CC1(C)COC(c2ccccc2C(=O)c2ccc(Cl)cc2)=N1 — 2.1-fold lower, 560 nM
- OC1(C/C=C/c2ccccc2)c2ccccc2C2=NCCN21 (configuration not stated) — 7.8-fold higher, 9300 nM
- OC1(c2ccncc2)c2ccccc2C2=NCCN21 (configuration not stated) — 19-fold lower, 63 nM
- Cn1ccnc1-c1ccccc1C(=O)c1ccc(Cl)cc1 — 3.6-fold higher, 4300 nM
- OC1(c2ccc(OCc3ccccc3)cc2)c2ccccc2C2=NCCCN21 (configuration not stated) — 12-fold lower, 100 nM
- OC1(c2cccc(C(F)(F)F)c2)c2ccccc2C2=NCCN21 (configuration not stated) — 5.2-fold lower, 230 nM
- COc1ccc(C2(O)c3ccccc3C3=NCCN32)cc1OC (configuration not stated) — 5.8-fold higher, 6900 nM
- OC1(c2ccc(Cl)cc2)c2ccc3ccccc3c2C2=NCCN21 (configuration not stated) — 75-fold lower, 16 nM
- OC(c1ccc(Cl)cc1)c1ccccc1C1=NCCN1 (stereo in doubt; 53) — 6.3-fold lower, 190 nM
- O=C(c1ccc(Cl)cc1)c1cccc(C2=NCCN2)c1 — 1.8-fold higher, 2200 nM
- OC1(c2ccc(Cl)cc2)c2ccc3ccccc3c2C2=NCCCN21 (configuration not stated) — 32-fold lower, 37 nM
- [O-][S+](c1ccc(Cl)cc1)c1ccccc1C1=NCCN1 (configuration not stated) — 6.1-fold higher, 7300 nM
- CC1(C)COC(c2ccc(C(=O)c3ccc(Cl)cc3)cc2)=N1 — 1.6-fold higher, 1900 nM
- OC1(c2ccc3ccccc3c2)c2ccc3ccccc3c2C2=NCCN21 (configuration not stated) — 32-fold lower, 38 nM
